Reference: patent publication US5935969A, “Pyrido-thiopyrandoinazoles with antitumor activity” (University of Vermont, priority 1998, dated 1999)
Values after ≈ are worked out from the molar mass of the structure shown. Read-outs that look alike come from different tables or passages of the source.

Key:
LoVo = assay: MTT cytotoxicity, human colon adenocarcinoma LoVo; assay type: cell-based; details: read-out: IC50 LoVo (concentration causing 50% inhibition of tumor cells growth)
Protocol: (§1) The evaluation of the biological activity for the compounds of this invention was performed "in vitro" and "in vivo" following the protocols developed by the U.S. National Cancer Institute.
(§2) The evaluation of the "in vitro" cytotoxic activity of the compounds of the invention was performed using the following cell lines: a murine sarcoma (S-180) and its subline expressing multidrug resistance (S-180/A-10), a leukemia (L1210), a human colon adenocarcinoma cell line (LoVo) isolated from a metastatic nodule and its subline expressing multidrug resistance. This latter subline is resistant to a number of antitumor agents, among which are doxorubicin, VP-16 and vincristine.
(§3) The columns headed L1210, S180 LoVo and LoVo/Dx contain the IC50 values against said tumor cell lines, as above described.
(§4) CYTOTOXICITY ON LOVO AND LOVO/DX WAS DETERMINED BY MTT ASSAY FOLLOWING 1

LoVo/Dx [1] = assay: MTT cytotoxicity, multidrug-resistant subline LoVo/DX; assay type: cell-based, human; details: for IC50: Homo sapiens, read-out: IC50 LoVo/Dx (concentration causing 50% inhibition of tumor cells growth)
Protocol: as §1, §2
The columns headed L1210, S180 LoVo and LoVo/Dx contain the IC50 values against said tumor cell lines, as above described. […]
as §4

[2] = W.H.O. grade; phase I and phase II clinical trials; cited from earlier work
[3] = rat; cited from earlier work
[4] = humans; cited from earlier work
L1210 = assay: MTT cytotoxicity, leukemia L1210; assay type: cell-based; details: Mus musculus, MTT assay, read-out: IC50 L1210 (concentration causing 50% inhibition of tumor cells growth)
Protocol: as §1, §2, §3

S180 = assay: MTT cytotoxicity, murine sarcoma S-180; assay type: cell-based; details: Mus musculus; murine sarcoma S-180, MTT assay; read-out: IC50 S180 (concentration causing 50% inhibition of tumor cells growth)
Protocol: as §1, §2, §3

LoVo/Dx [5] = details: in words; cited from earlier work
[6] = cited from earlier work
[7] = in vivo; cited from earlier work
[8] = test system: cell histotypes developing resistance against doxorubicin mediated by overexpression of glycoprotein P; details: MDR; cited from earlier work
[9] = i.p., non-tumor bearing rats, equieffective antitumor dosages; cited from earlier work
[10] = test system: advanced breast cancer, acute leukemia and lymphoma; details: cited from earlier work
[11] = MTT assay, following 1 hour of drug exposure
[12] = LoVo/Dx multidrug-resistant subline, MTT assay, following 1 hour of drug exposure
[13] = in animals, versus mitoxantrone

SMILES	IC50 (L1210) [µg/mL]	IC50 (S180) [µg/mL]	IC50 (LoVo; [11]) [µg/mL]	IC50 (LoVo/Dx [1]; [12]) [µg/mL]	other results
O=C1c2c(O)cccc2-c2nn(CCNCCO)c3ccc(NCCNCCO)c1c23 [CI-941]	–	–	–	–	IC50 (LoVo; 1 h): 0.053 µg/mL (≈ 0.125 µM); IC50 (LoVo/Dx [1]; LoVo/DX, 1 h): 44.5 µg/mL (≈ 105 µM); activity in the resistant cell line (LoVo/Dx [1]; LoVo/DX, in words): loses completely its activity; leukopenia (dose limiting) [2]: grade 3 and 4; neutropenia (dose limiting) [2]: grade 4; nephrotoxicity [3]: marked nephrotoxicity; cardiotoxicity [4]: irreversible cardiotoxicity; symptoms of cardiac failure or acute cardiac events [4]: no symptoms of cardiac failure or acute cardiac events
CN(C)CCn1nc2c3c(c([N+](=O)[O-])ccc31)Sc1ncccc1-2 [Example 1]	0.08 (≈ 0.234 µM)	0.17 (≈ 0.498 µM)	–	–	–
CN(C)CCn1nc2c3c(c([N+](=O)[O-])ccc31)Sc1cnccc1-2 [Example 3, N,N-dimethyl-5-nitro-2H-pyrido[4',3':5,6]thiopyrano[4,3,2-cd]indazole-2-ethanamine]	0.05 (≈ 0.146 µM)	0.14 (≈ 0.41 µM)	–	–	–
CN(C)CCn1nc2c3c(c([N+](=O)[O-])ccc31)Sc1ccncc1-2 [Example 4, N,N-dimethyl-5-nitro-2H-pyrido[3',4':5,6]thiopyranol[4,3,2cd]indazole-2-ethanamine]	0.00062 (≈ 0.00182 µM)	0.0032 (≈ 0.00937 µM)	–	–	–
CN(C)CCn1nc2c3c(c(N)ccc31)Sc1ccncc1-2 [Example 5, N,N-dimethyl-5-amino-2H-pyrido[3',4':5,6]thiopyrano[4,3,2-cd]indazole-2-ethanamine]	0.003 (≈ 0.00963 µM)	0.0066 (≈ 0.0212 µM)	0.016 (≈ 0.0514 µM)	0.027 (≈ 0.0867 µM)	–
CN(C)CCNc1ccc2c3c(nn2CCN(C)C)-c2cccnc2Sc13 [Example 6, N'-[2-[2-(dimethylamino)ethyl]-2H-pyrido[3',2':5,6]thiopyrano[4,3,2-cd]indazol-5-yl]--N,N-dimethyl-1,2-ethanediamine]	0.008 (≈ 0.0209 µM)	0.028 (≈ 0.0732 µM)	2.4 (≈ 6.27 µM)	2.6 (≈ 6.8 µM)	–
CN(C)CCn1nc2c3c(c(NCCN)ccc31)Sc1ncccc1-2 [Example 7, N'-[2-[2-(dimethylamino)lethyl]-2H-pyrido[3',2':5,6]thiopyrano[4,3,2-cd]indazol-5-yl]l-1,2-ethanediamine]	0.0125 (≈ 0.0353 µM)	0.058 (≈ 0.164 µM)	0.027 (≈ 0.0762 µM)	16.8 (≈ 47.4 µM)	–
CN(C)CCn1nc2c3c(c(NCCN)ccc31)Sc1ccncc1-2 [Example 8]	0.0016 (≈ 0.00451 µM)	0.0029 (≈ 0.00818 µM)	0.008 (≈ 0.0226 µM)	0.26 (≈ 0.733 µM)	–
COc1cc(C2c3cc4c(cc3C(OC3OC5COC(C)OC5C(O)C3O)C3COC(=O)C23)OCO4)cc(OC)c1O (stereo not shown) [VP-16]	–	–	–	–	resistance of the LoVo/DX subline (LoVo/Dx [5]): resistant
O=C1c2ccccc2C(=O)c2c(NCCNCCO)ccc(NCCNCCO)c21 [ametantrone, 1,4-bis[(2-(2-hydroxyethylamino)ethyl)amino]anthracene-9,10-dione]	–	–	–	–	cardiotoxicity relative to mitoxantrone [6, 13]: about 10 -fold less; potency relative to mitoxantrone [6, 13]: about 10 -fold less; myelodepressive toxicity [7]: remarkable myelodepressive toxicity; cross-resistance to doxorubicin-resistant cell histotypes [8]: cross-resistance
COc1cccc2c1C(=O)c1c(O)c3c(c(O)c1C2=O)C[C@@](O)(C(=O)CO)C[C@@H]3O[C@H]1C[C@H](N)[C@H](O)[C@H](C)O1 [doxorubicin, reference compound]	–	–	–	–	IC50 (LoVo; 1 h): 0.58 µg/mL (≈ 1.07 µM); IC50 (LoVo/Dx [1]; LoVo/DX, 1 h): 53.8 µg/mL (≈ 99 µM); accumulation of doxorubicin in LoVo/DX (LoVo/Dx [5]): reduced accumulation; resistance of the LoVo/DX subline (LoVo/Dx [5]): resistant
CN(C)CCn1nc2c3c(c(NCCN)ccc31)Sc1cnccc1-2 [ex.9-cpd 30, N'-[2-[2-(dimethylamino)ethyl]-2H-pyrido[4',3':5,6]thiopyrano[4,3,2-cd]indazol-5-yl]-1,2-ethanediamine]	0.014 (≈ 0.0395 µM)	0.058 (≈ 0.164 µM)	–	–	–
CN(C)CCn1nc2c3c(c(NC(=O)CN)ccc31)Sc1ncccc1-2 [ex. 10-cpd 1, N'-[2-(2-dimethylamino)ethyl]-5-(2'-amino-acetylamino)-2H-pyrido[3',2':5,6]thiopyrano [4,3,2-cd]indazole]	0.03 (≈ 0.0814 µM)	0.22 (≈ 0.597 µM)	–	–	–
CN(C)CCn1nc2c3c(c(NC(=O)CN)ccc31)Sc1ccncc1-2 [ex. 10-cpd 2, N'-[2-(2-dimethylamino)ethyl]-5-(2'-amino-acetylamino)-2H-pyrido[3',4':5,6]thiopyrano [4,3,2-cd]indazole]	–	–	0.04 (≈ 0.109 µM)	0.21 (≈ 0.57 µM)	–
CCN(CC)CCn1nc2c3c(c([N+](=O)[O-])ccc31)Sc1ccncc1-2 [ex. 11-cpd 1, N,N-diethyl-5-nitro-2 H-pyrido[3',4': 5,6]thiopyrano[4,3,2-cd]indazole-2-ethanamine]	0.00061 (≈ 0.00165 µM)	0.0031 (≈ 0.00839 µM)	–	–	–
CCN(CC)CCn1nc2c3c(c([N+](=O)[O-])ccc31)Sc1ncccc1-2 [ex. 11-cpd 2, N,N-diethyl-5-nitro-2H-pyrido[3',2':5,6]thiopyrano[4,3,2-cd]indazole-2-ethanamine]	0.2 (≈ 0.541 µM)	0.22 (≈ 0.595 µM)	–	–	–
CCN(CC)CCn1nc2c3c(c(N)ccc31)Sc1ccncc1-2 [ex. 12-cpd 1, N,N-diethyl-5-amino-2H-pyrido[3',4':5,6]thiopyrano[4,3,2-cd]indazole-2-ethanamine]	0.0015 (≈ 0.00442 µM)	0.0031 (≈ 0.00913 µM)	0.036 (≈ 0.106 µM)	0.094 (≈ 0.277 µM)	–
O=C1c2c(O)ccc(O)c2C(=O)c2c(NCCNCCO)ccc(NCCNCCO)c21 [mitoxantrone, 5,8-dihydroxy-1,4-bis[(2-(2-hydroxyethylamino)ethyl)amino]anthracene-9,10-dione]	–	–	–	–	IC50 (LoVo; 1 h): 0.024 µg/mL (≈ 0.054 µM); IC50 (LoVo/Dx [1]; LoVo/DX, 1 h): 0.67 µg/mL (≈ 1.51 µM); cardiotoxicity in comparison to doxorubicin ([6]; animal studies): diminished cardiotoxicity in comparison to doxorubicin; delayed toxicity [9]: a delayed toxicity is observed only with mitoxantrone; clinical activity ([10]; clinical trials, advanced breast cancer, acute leukemia and lymphoma): particularly promising activity; clinical cardiotoxicity ([10]; mostly in patients previously treated with doxorubicin): some clinical cardiotoxicity has been observed; myelodepressive toxicity [7]: remarkable myelodepressive toxicity
CC[C@]1(O)C[C@H]2CN(CCc3c([nH]c4ccccc34)[C@@](C(=O)OC)(c3cc4c(cc3OC)N(C=O)[C@H]3[C@@](O)(C(=O)OC)[C@H](OC(C)=O)[C@]5(CC)C=CCN6CC[C@]43[C@@H]65)C2)C1 [vincristine]	–	–	–	–	resistance of the LoVo/DX subline (LoVo/Dx [5]): resistant
